Columns and labels:
SHP-1 [1] = biological target: T1, SHP-1 (Mus musculus, UniProt P29351); assay: SPR of SHP-1 injected over ITIM peptides with different PEG linker lengths: reach and tethered catalysis (MPDPDE fit); format: biochemical, murine; settings: for kcat*(tethered) versus tether length: SHP-1 over peptides with shorter PEG linkers, compared with PEG28-ITIM, Fig. 5B; for L (reach parameter) versus tether length: SHP-1 over peptides, average fit, PEG28 n = 15, PEG0 n = 2, 10°C, HBS-EP pH 7.4
T1 construct: 6xHis (N); made in house; host or cells: Escherichia coli BL21-CodonPlus (DE3)-RIPL
T1 sequence (P29351 whole entry): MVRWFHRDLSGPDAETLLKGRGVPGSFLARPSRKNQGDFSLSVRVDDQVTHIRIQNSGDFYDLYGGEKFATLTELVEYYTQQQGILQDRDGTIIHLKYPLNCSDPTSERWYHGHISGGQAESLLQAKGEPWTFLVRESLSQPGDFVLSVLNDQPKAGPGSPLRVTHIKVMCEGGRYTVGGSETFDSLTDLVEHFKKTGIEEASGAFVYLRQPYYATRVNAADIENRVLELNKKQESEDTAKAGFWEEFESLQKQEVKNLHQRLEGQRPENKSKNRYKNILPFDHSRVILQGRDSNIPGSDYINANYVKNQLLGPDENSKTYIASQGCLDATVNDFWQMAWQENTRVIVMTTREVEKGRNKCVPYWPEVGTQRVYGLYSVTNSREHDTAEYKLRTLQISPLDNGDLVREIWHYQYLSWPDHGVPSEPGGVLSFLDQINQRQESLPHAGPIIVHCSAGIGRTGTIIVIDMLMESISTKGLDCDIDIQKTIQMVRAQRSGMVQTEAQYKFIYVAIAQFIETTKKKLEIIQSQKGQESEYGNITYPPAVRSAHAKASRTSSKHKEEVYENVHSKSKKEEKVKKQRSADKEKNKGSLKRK
Description: (§1) A construct expressing murine SHP-1 with an N-terminal 6× His tag was provided by M. H. Brown. Mutation of the SH2 domains was performed using a quick-change strategy. The mutations introduced were R30K and R33E for the N-terminal SH2 domain mutant and R136K for the C-terminal SH2 domain mutant previously shown to result in loss of binding ([6]). All peptides were ordered from PeptideSynthetics and were certified to be >95% pure. Peptides sequences were derived from the membrane-proximal ITIM sequence of mouse LAIR-1 receptor.
(§2) Experiments were performed on a Biacore 3000 instrument (GE Healthcare Life Sciences). All experiments were performed at 10°C and with a buffer flow rate of 10 μl/min. The buffer used was Hepes-buffered saline (HBS-EP; GE Healthcare Life Sciences), which contained 10 mM Hepes (pH 7.4), 150 mM NaCl, 3 mM EDTA, and 0.005% Surfactant P20.
(§3) A CM5 sensorchip was coupled with streptavidin to near saturation (typically between 4000 and 7000 RU) using the amine coupling kit (GE Healthcare Life Sciences) as described previously ([42]). After streptavidin was coupled, biotinylated peptides were injected to give the indicated concentrations in experimental flow cells, and excess biotin-binding sites were blocked with biotin in HBS-EP. The molar ratio of peptide to streptavidin was kept below 1:1 to ensure that peptide immobilization was random and not clustered on the tetravalent streptavidin molecules. Reference flow cells were treated with buffer and then blocked with biotin; pilot experiments using unphosphorylated control peptides in reference flow cells were indistinguishable from buffer-treated reference flow cells when injected with SHP-1. The chip surface was then conditioned with 5 × 5-min injections of HBS-EP. SHP-1 protein in HBS-EP with 1 mM dithiothreitol was then injected over reference and experimental flow cells in series for 5 min at the indicated concentrations. All SPR data were converted from the reference-subtracted data (in resonance units) to fraction bound by dividing the resonance units by the theoretical maximum resonance units expected if the experimental flow cell was saturated with bound SHP-1.
The five fitting parameters (p1, p2, p3, p4, and p5) are related to the five biophysical/biochemical constants as follows: p1 = kon [SHP-1], p2 = koff, p3=kcat*(tethered)× [peptide], p4=kcat*(tethered)/L^3 , and p5=kcat*(solution)× [SHP-1].
The MPDPDE model was fit to the experimental data using lsqcurvefit in Matlab (Mathworks). Specifically, the value of nB from the MPDPDE model was fit to the experimental SPR data that were normalized to maximum binding. Each fit was repeated multiple times with different initial guesses for the five fitting parameters to make certain that the best fit was achieved (global convergence). […]

SHP-1 [2] = biological target: T1, SHP-1; assay: SPR of SHP-1 injected over ITIM peptides: SHP-1 binding to the peptides; parameters: species or system murine; settings: SHP-1 over peptides with shorter PEG linkers, compared with PEG28-ITIM; Fig. 5B
Description: as §1, §2
A CM5 sensorchip was coupled with streptavidin to near saturation (typically between 4000 and 7000 RU) using the amine coupling kit (GE Healthcare Life Sciences) as described previously ([42]). After streptavidin was coupled, biotinylated peptides were injected to give the indicated concentrations in experimental flow cells, and excess biotin-binding sites were blocked with biotin in HBS-EP. […]

PEG28-ITIM [3] = assay: SPR of SHP-1 injected over immobilised PEG28-ITIM: binding constants (MPDPDE fit); parameters: species or system mouse; settings: SHP-1 variants over PEG28-ITIM, compared with wild-type
Description: as §1, §2, §3
To determine the concentration of peptide in the assays, we first needed a conversion factor between the resonance units and the mass of peptide at the chip surface. We determined this conversion factor by injecting four concentrations of SHP-1 over a control flow cell on a CM5 chip and plotting the mass of SHP-1 injected against the raw resonance unit change. We repeated this on seven flow cells across four sensor chips to get an average slope of 149 ± 15 RU per g/liter (±SEM). […]

PEG28-ITIM [4] = assay: SPR of SHP-1 injected over immobilised PEG28-ITIM: tethered/solution catalysis and reach (MPDPDE fit); format: biochemical, mouse; settings: for L (reach parameter), SH2 variants / allosteric activation (in words), SH2 variants: SHP-1 variants over PEG28-ITIM; for L (reach parameter), SH2 variants: average fit Fig. 6B: WT n = 15, N-SH2 mutant n = 3, C-SH2 mutant n = 9
Description: as §1, §2, §3
To determine the concentration of peptide in the assays, we first needed a conversion factor between the resonance units and the mass of peptide at the chip surface. We determined this conversion factor by injecting four concentrations of SHP-1 over a control flow cell on a CM5 chip and plotting the mass of SHP-1 injected against the raw resonance unit change. We repeated this on seven flow cells across four sensor chips to get an average slope of 149 ± 15 RU per g/liter (±SEM). This constant, together with the molecular weight of the peptide, was used to convert between the resonance units of peptides immobilized and the molar concentration at the chip surface. For example, 48.5 RU of PEG28-ITIM (molecular weight, 3221) was immobilized to obtain [peptide] = 97.1 μM (Fig. 2A).
From the MPDPDE model–simulated SPR traces, one would predict that the kcat*(solution) (fig. S4, G and H) and L (fig. S4F) are likely to be very sensitive to small systematic errors in the SPR trace at longer time scales. Nonspecific binding and baseline drift are two well-known sources of such systemic errors that can produce artifacts at long time scales (see fig. S6A for examples). To exclude data affected by these artifacts, we propose a simple quality control check that greatly improves the accuracy of estimating L, kcat*(tethered) , and kcat*(solution) . As a measure of the signal-to-noise ratio at long time points, we took the resonance units 20 s after the injection was completed (noise) and divided it by the resonance units 20 s before the injection finished (signal). […] Data that had evidence of significant artifact were excluded from the study based on this criterion (red data points in fig. S6B). […]

Substance	kcat*(tethered) versus tether length (SHP-1 [1])	kon versus tether length (SHP-1 [2])	L (reach parameter) versus tether length (SHP-1 [1]) [nm]	L (reach parameter), SH2 variants (PEG28-ITIM [4]) [nm]	allosteric activation (in words), SH2 variants (PEG28-ITIM [4]; Fig. 6B)	also measured
Biotin-(PEG)3-DLQEVTY*IQLDHH [PEG3-ITIM]	decrease	decrease	–	–	–	–
Biotin-(PEG)28-DLQEVTY*IQLDHH [PEG28-ITIM]	–	–	23	–	–	–
Biotin-GDLQEVTY*IQLDHH [PEG0-ITIM]	decrease	decrease	17	–	–	–
C-terminal mutant: SHP-1 with R136K mutation in the C-terminal SH2 domain	–	–	–	23.9	allosteric activation is observed in both cases	binding to ITIM peptide (in words), SH2 variants (PEG28-ITIM [3]): weak effect on binding
N-terminal mutant: SHP-1 with R30K and R33E mutations in the N-terminal SH2 domain	–	–	–	16.5	still exhibited allosteric activation	binding to ITIM peptide (in words), SH2 variants (PEG28-ITIM [3]; listed as Mutation of the N-terminal SH2 domain): drastically reduced binding; binding to ITIM peptide (in words), SH2 variants (PEG28-ITIM [3]; listed as N-terminal SH2 (N-SH2) mutant SHP-1): weak binding; kcat*(tethered) over kcat*(solution), SH2 mutant (PEG28-ITIM [4]; N-SH2 mutant SHP-1 over PEG28-ITIM, n = 3): 10 fold; allosteric activation (in words), SH2 variants (PEG28-ITIM [4]; Fig. 6B, listed as N-terminal SH2 (N-SH2) mutant SHP-1): allosteric activation is observed in both cases; reach (in words), SH2 variants (PEG28-ITIM [4]; binding via C-terminal compared to N-terminal SH2 domain, PEG28-ITIM, Fig. 6B): reduced reach

From publication PMC5365251, “Biophysical assay for tethered signaling reactions reveals tether-controlled activity for the phosphatase SHP-1” (Science Advances, 2017)
